Reference: patent publication US5158948A (Abbott Laboratories, priority 1991, dated 1992)
Counter-ions that a name gives are not always drawn. Like-named read-outs stand apart in the source and are kept apart here.

Experiments:
dopamine D-2 receptor = target: T1, dopamine D-2 receptor (Rattus norvegicus, UniProt P61169); assay: D-2 receptor binding assay, competition with [^3 H]-spiperone in homogenized rat caudate; details: rat caudate homogenate
T1 construct: Homogenized rat caudate was the source of the D-2 receptors; from tissue; host or cells: rat caudate homogenate
Procedure: Homogenized rat caudate was the source of the D-2 receptors. […] A. Frey, T. E. Cote, C. […] The molar affinity of the compound for the receptor binding site was calculated by the same method used for the D-1 receptor assay, assuming a competitive interaction between the compound and the radiolabeled ligand.

dopamine D-1 receptor [1] = target: T2, dopamine D-1 receptor (Rattus norvegicus, UniProt P18901); assay: D-1 receptor binding assay, competition with [^125 I]SCH-23982 in homogenized rat caudate
Description: The compounds compete with the radiolabeled ligand for occupancy of the receptors and the molar potency of each compound was quantified.

D-1 receptor = assay: D-1 antagonist activity in adenylate cyclase assay (antagonism of dopamine-induced increase in cAMP); assay type: biochemical; details: 10 μM dopamine; goldfish retina or rat striatum homogenate
Procedure: The functional activity of a compound was determined by assaying, in vitro, its ability to either stimulate the enzyme adenylate cyclase to produce more cAMP (agonist activity) or to antagonize a dopamine-induced increase in cAMP levels. The protocol for the adenylate cyclase assays was described by K. J. Watling and J. E. Dowling in J Neurochemistry, 1981, 36: 599 and by J. W. Kebabian, et al. in Proc Natl Acad Sci, USA, 1972, 69: 2145. In order to determine agonist activity, cell-free tissue homogenates are incubated in an ionic buffer solution containing ATP and the compound being evaluated. The tissue was obtained from either goldfish retina or rat striatum.
The Ki values were calculated as described by Y. C.

dopamine D-1 receptor [2] = target: T2, dopamine D-1 receptor; assay: Rotation behavior: block of A-68930-induced rotation in rats with unilateral 6-hydroxydopamine lesion; assay type: in vivo; parameters: Homogenized rat caudate was incubated; from tissue; host or cells: rat caudate homogenate; details: subcutaneous, A-68930 1.0 μmol/kg s.c.
[3] = dose 10.0 μmol/kg, saline 1118 (Example 18), 1011 (Example 27)

T2 sequence (P18901 whole entry): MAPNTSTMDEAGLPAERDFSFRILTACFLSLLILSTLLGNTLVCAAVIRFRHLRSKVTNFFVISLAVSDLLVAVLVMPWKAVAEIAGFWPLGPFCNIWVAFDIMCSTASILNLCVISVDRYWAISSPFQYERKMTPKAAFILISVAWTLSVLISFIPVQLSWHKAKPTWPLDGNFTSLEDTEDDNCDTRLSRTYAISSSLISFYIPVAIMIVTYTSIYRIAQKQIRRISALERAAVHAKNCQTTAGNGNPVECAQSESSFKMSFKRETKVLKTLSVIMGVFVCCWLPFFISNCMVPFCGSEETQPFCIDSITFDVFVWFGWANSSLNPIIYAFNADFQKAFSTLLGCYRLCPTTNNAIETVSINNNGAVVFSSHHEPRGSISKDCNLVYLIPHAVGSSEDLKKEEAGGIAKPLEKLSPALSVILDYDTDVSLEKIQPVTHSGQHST
T1 sequence (P61169 whole entry): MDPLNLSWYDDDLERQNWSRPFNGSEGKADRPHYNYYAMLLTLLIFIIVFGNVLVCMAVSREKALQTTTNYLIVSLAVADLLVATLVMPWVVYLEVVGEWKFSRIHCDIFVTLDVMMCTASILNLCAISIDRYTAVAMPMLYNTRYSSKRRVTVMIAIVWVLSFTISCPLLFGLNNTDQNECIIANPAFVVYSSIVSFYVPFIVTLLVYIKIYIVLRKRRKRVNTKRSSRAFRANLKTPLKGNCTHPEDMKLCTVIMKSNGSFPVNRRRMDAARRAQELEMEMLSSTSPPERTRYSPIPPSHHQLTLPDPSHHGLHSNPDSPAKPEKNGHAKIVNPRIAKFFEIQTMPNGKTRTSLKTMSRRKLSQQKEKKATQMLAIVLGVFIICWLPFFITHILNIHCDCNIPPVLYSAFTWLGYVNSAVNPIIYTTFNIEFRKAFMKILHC

Compound | Ki (dopamine D-2 receptor) [nM] | Ki (dopamine D-1 receptor [1]) [nM] | IC50 (D-1 receptor) [nM] | Ki (D-1 receptor) [nM] | Ki (dopamine D-1 receptor [1]; read-out: D-1 Ki, rat caudate homogenate, [^125 I]SCH-23982) [nM] | Number of Rotations/2 h (dopamine D-1 receptor [2]; dose 3.0 μmol/kg, saline group 1011) [Rotations/2 h] | Number of Rotations/2 h (dopamine D-1 receptor [2]; [3]) [Rotations/2 h] | Number of Rotations/2 h (dopamine D-1 receptor [2]; dose 30.0 μmol/kg, saline group 1011) [Rotations/2 h] | Number of Rotations/2 h (dopamine D-1 receptor [2]; dose 3.2 μmol/kg, saline group 1118) [Rotations/2 h] | Number of Rotations/2 h (dopamine D-1 receptor [2]; dose 32.0 μmol/kg, saline group 1118) [Rotations/2 h]
CN1CCc2cc(Br)c(O)cc2C2(CCCCc3ccccc32)C1 (centres unmarked) [Example 35, 7-Bromo-8-hydroxy-3-methyl-1-(spiro-5'-6',7',8',9'-tetrahydro-5'H-benzocycloheptene)-2,3,4,5-tetrahydro-1H-3-benzazepine hydrochloride] | 7500 | 940 |  |  |  |  |  |  |  | 
CN1CCc2cc(Br)c(O)cc2C2(CCOc3ccccc32)C1 (centres unmarked) [Example 137, 7-Bromo-8-hydroxy-3-methyl-1-(spiro-4'-(3',4'-dihydro-2'H-1'-benzopyran))-2,3,4,5-tetrahydro-1H-3-benzazepine hydrochloride] | > 100000 | 20 | 140 | 30 |  |  |  |  |  | 
Oc1cc2c(cc1O)C1(CCc3ccccc31)CNCC2 (centres unmarked) [Example 15, 7.8-Dihydroxy-1-(spiro-1'-indan)-2,3,4,5-tetrahydro-1H-3-benzazepine hydrobromide] | > 100000 |  |  |  | 650 |  |  |  |  | 
COc1cc2c(cc1O)C1(CCOc3ccccc31)CN(C)CC2 (centres unmarked) [Example 135, 8-Hydroxy-7-methoxy-3-methyl-1-(spiro-4'-(3',4'-dihydro-2'H-1'-benzopyran))-2,3,4,5-tetrahydro-1H-3-benzazepine hydrochloride] | 660 | 160 | 960 | 170 |  |  |  |  |  | 
Oc1ccc2c(c1)C1(CCCc3ccccc31)CNCC2 (centres unmarked) [Example 28, 8-Hydroxy-1-(spiro-1'-1',2',3',4'-tetrahydronapthalene)-2,3,4,5-tetrahydro-1H-3-benzazepine hydrochloride] | 136000 | 23000 |  |  |  |  |  |  |  | 
CN1CCc2cc(O)c(O)cc2C2(CCCc3ccccc32)C1 (centres unmarked) [Example 27, 7,8-Dihydroxy-3-methyl-1-(spiro-1'-1',2',3',4'-tetrahydronapthalene)-2,3,4,5-tetrahydro-1H-3-benzazepine hydrobromide] | > 100000 | 840 | 2290 | 400 |  | 913 | 652 | 119 |  | 
Oc1cc2c(cc1Br)CCNCC21CCc2ccccc21 (centres unmarked) [Example 17, 7-Bromo-8-hydroxy-1-(spiro-1'-indan)-2,3,4,5-tetrahydro-1H-2,3,4,5-tetrahydro-1H-3-benzazepine hydrochloride] | 18000 | 310 | 830 | 140 |  |  |  |  |  | 
Oc1ccc2c(c1)C1(CCc3ccccc31)CNCC2 (centres unmarked) [Example 13, 8-Hydroxy-1-(spiro-1'-indan)-2,3,4,5-tetrahydro-1H-3-benzazepine hydrobromide] | > 100000 | 15900 |  |  |  |  |  |  |  | 
COc1cc2c(cc1O)C1(CCCc3ccccc31)CN(C)CC2 (centres unmarked) [Example 10, 8-Hydroxy-7-methoxy-3-methyl-1-(spiro-1'-1',2',3',4'-tetrahydronaphthalene)-2,3,4,5-tetrahydro-1H-3-benzazepine hydrochloride] | 562000 | 50 | 320 | 60 |  |  |  |  |  | 
CN1CCc2cc(Br)c(O)cc2C2(CCCc3ccccc32)C1 (centres unmarked) [Example 31, 7-Bromo-8-hydroxy-3-methyl-1-(spiro-1'-1',2',3',4'-tetrahydronapthalene)-2,3,4,5-tetrahydro-1H-3-benzazepine hydrochloride] | 10100 | 30 | 140 | 20 |  |  |  |  |  | 
CN1CCc2cc(Br)c(O)cc2C2(CCc3ccccc32)C1 (centres unmarked) [Example 18, 7-Bromo-8-hydroxy-3-methyl-1-(spiro-1'-indan)-2,3,4,5-tetrahydro-1H-3-benzazepine hydrochloride] | 5900 | 10 | 50 | 10 |  |  | 412 |  | 491 | 154
COc1cc2c(cc1O)C1(CCCc3ccccc31)CNCC2 (centres unmarked) [Example 9, 8-Hydroxy-7-methoxy-1-(spiro-1'-1',2',3',4'-tetrahydronaphthalene)-2,3,4,5-tetrahydro-1H-3-benzazepine hydrochloride] | > 100000 | 2610 | 15700 | 2730 |  |  |  |  |  | 
CN1CCc2ccc(O)cc2C2(CCCc3ccccc32)C1 (centres unmarked) [Example 29, 8-Hydroxy-3-methyl-1-(spiro-1'-1',2',3',4'-tetrahydronapthalene)-2,3,4,5-tetrahydro-1H-3-benzazepine hydrochloride] | 112000 | 440 | 4240 | 740 |  |  |  |  |  | 
CN1CCc2ccc(O)cc2C2(CCc3ccccc32)C1 (centres unmarked) [Example 14, 8-Hydroxy-3-methyl-1-(spiro-1'-indan)-2,3,4,5-tetrahydro-1H-3-benzazepine hydrobromide] | > 100000 | 410 | 580 | 100 |  |  |  |  |  | 
COc1cc2c(cc1O)C1(CCCCc3ccccc31)CN(C)CC2 (centres unmarked) [Example 32, 8-Hydroxy-7-methoxy-3-methyl-1-(spiro-5'-6',7',8',9'-tetrahydro-5'H-benzocycloheptene)-2,3,4,5-tetrahydro-1H-3-benzazepine hydrochloride] | 112000 | 1500 | 3240 | 560 |  |  |  |  |  | 
CN1CCc2cc([N+](=O)[O-])c(O)cc2C2(CCc3ccccc32)C1 (centres unmarked) [Example 21, 8-Hydroxy-7-nitro-3-methyl-1-(spiro-1'-indan)-2,3,4,5-tetrahydro-1H-3-benzazepine hydrochloride] | 39200 | 1320 | 1380 | 240 |  |  |  |  |  | 
Oc1cc2c(cc1Br)CCNCC21CCCc2ccccc21 (centres unmarked) [Example 30, 7-Bromo-8-hydroxy-1-(spiro-1'-1',2',3',4'-tetrahydronapthalene)-2,3,4,5-tetrahydro-1H-3-benzazepine hydrochloride] | 14600 | 680 | 920 | 160 |  |  |  |  |  | 
CSc1cc2c(cc1O)C1(CCCc3ccccc31)CN(C)CC2 (centres unmarked) [Example 11, 8-Hydroxy-7-(methylthio)-3-methyl-1-(spiro-1'-1',2',3',4'-tetrahydronaphthalene)-2,3,4,5-tetrahydro-1H-3-benzazepine hydrochloride] | 6800 | 110 | 230 | 40 |  |  |  |  |  | 
Oc1cc2c(cc1O)C1(CCCc3ccccc31)CNCC2 (centres unmarked) [Example 26, 7.8-Dihydroxy-1-(spiro-1'-1',2', 3',4'-tetrahydronapthalene)-2,3,4,5-tetrahydro-1H-3-benzazepine hydrobromide] | > 100000 | 16200 |  |  |  |  |  |  |  | 
CN1CCc2cc(O)c(O)cc2C2(CCc3ccccc32)C1 (centres unmarked) [Example 16, 7,8-Dihydroxy-3-methyl-1-(spiro-1'-indan)-2,3,4,5-tetrahydro-1H-3-benzazepine formate] | 5500 | 330 | 510 | 90 |  |  |  |  |  | 
COc1cc2c(cc1O)C1(CCc3ccccc31)CN(C)CC2 (centres unmarked) [Example 25, 8-Hydroxy-7-methoxy-3-methyl-1-(spiro-1'-indan)-2,3,4,5-tetrahydro-1H-3-benzazepine hydrochloride] | 9500 | 160 | 130 | 20 |  |  |  |  |  | 
CN1CCc2ccc(O)cc2C2(CCCCc3ccccc32)C1 (centres unmarked) [Example 33, 8-Hydroxy-3-methyl-1-(spiro-5'-6',7',8',9'-tetrahydro-5'H-benzocycloheptene)-2,3,4,5-tetrahydro-1H-3-benzazepine hydrochloride] | 8800 | 3410 |  |  |  |  |  |  |  | 
CN1CCc2ccc(O)cc2C2(CCOc3ccccc32)C1 (centres unmarked) [Example 136, 8-Hydroxy-3-methyl-1-(spiro-4'-(3',4'-dihydro-2'-H-1'-benzopyran))-2,3,4,5-tetrahydro-1H-3-benzazepine hydrochloride] | > 100000 | 1670 | 4340 | 750 |  |  |  |  |  | 
COc1cc2c(cc1O)C1(CCc3ccccc31)CNCC2 (centres unmarked) [Example 24, 8-Hydroxy-7-methoxy-1-(spiro-1'-indan)-2,3,4,5-tetrahydro-1H-3-benzazepine hydrochloride] | > 100000 | 810 | 530 | 130 |  |  |  |  |  | 
CN1CCc2cc(O)c(O)cc2C2(CCCCc3ccccc32)C1 (centres unmarked) [Example 34, 7.8-Dihydroxy-3-methyl-1-(spiro-5'-6',7',8',9'-tetrahydro-5'H-benzocycloheptene)-2,3,4,5-tetrahydro-1H-3-benzazepine hydrobromide] | 4200 | 8000 |  |  |  |  |  |  |  | 
